Measured values published in publication PMC6716157 (Journal of the American Chemical Society, 2019).

Tests used:
MsMftD = MsMftD (Mycolicibacterium smegmatis, UniProt A0QSB9); experiment: HPLC of product, aerobic; assay type: biochemical; conditions: oxidative deamination to PMFT
[1] = molecular target: MsCDH (carveol dehydrogenase, Msmeg_1410) (Mycolicibacterium smegmatis, UniProt A0QSA5); experiment: UV-vis absorbance of copurified NADH at […] nm; assay type: binding; conditions: pH 7.0, non-exchangeable, oxidised by PMFT
MuMftD (MftD) = molecular target: T1, MuMftD (MftD) (Mycobacterium ulcerans, UniProt A0PM50); experiment: HPLC of flavin released by heat from purified protein; assay type: binding; conditions: copurified; bound reduced as isolated, released on oxidation
T1 sequence (A0PM50 1-390): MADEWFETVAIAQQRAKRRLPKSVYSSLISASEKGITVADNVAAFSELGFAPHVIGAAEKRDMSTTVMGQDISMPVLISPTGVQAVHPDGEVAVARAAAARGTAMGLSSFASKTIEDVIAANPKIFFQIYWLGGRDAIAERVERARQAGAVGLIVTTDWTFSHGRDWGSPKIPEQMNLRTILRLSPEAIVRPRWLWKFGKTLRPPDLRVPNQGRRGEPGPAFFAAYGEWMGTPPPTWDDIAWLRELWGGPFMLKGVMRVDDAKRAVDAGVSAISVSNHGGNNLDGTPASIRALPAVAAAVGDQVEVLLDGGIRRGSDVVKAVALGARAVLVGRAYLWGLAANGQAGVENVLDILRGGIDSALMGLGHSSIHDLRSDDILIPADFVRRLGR

MsCDH (carveol dehydrogenase, Msmeg_1410), sequence (A0QSA5 1-283): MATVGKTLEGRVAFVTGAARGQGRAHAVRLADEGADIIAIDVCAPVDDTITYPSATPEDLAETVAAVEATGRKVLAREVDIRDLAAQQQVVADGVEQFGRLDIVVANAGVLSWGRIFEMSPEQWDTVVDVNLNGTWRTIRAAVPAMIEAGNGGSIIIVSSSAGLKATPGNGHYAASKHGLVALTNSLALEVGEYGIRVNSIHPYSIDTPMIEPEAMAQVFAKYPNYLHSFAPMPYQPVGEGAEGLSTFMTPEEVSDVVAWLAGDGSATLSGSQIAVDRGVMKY
MsMftD, sequence (A0QSB9 whole entry): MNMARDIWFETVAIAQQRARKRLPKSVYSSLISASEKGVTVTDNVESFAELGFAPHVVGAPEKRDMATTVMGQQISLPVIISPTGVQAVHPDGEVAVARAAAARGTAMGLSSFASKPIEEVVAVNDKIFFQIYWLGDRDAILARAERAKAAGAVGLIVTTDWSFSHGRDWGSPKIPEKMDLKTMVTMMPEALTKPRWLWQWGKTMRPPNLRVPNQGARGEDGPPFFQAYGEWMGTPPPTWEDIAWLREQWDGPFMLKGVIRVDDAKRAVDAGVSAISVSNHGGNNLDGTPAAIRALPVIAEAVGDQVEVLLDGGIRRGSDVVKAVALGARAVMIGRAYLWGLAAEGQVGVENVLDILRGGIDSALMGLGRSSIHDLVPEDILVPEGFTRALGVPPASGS

CC1(C)C(Cc2ccc(O)cc2)NC(=O)C1N (stereo not drawn) [AHDP, 3-amino-5-[(p-hydroxyphenyl)methyl]-4,4-dimethyl-2-pyrrolidinone]
HPLC of product, aerobic (MsMftD): the HPLC chromatogram for the MsMftD reaction showed similar results to that of MuMftD

NC(=O)C1=CN([C@@H]2O[C@H](COP(=O)(O)OP(=O)(O)OC[C@H]3O[C@@H](n4cnc5c(N)ncnc54)[C@H](O)[C@@H]3O)[C@@H](O)[C@H]2O)C=CC1 [NADH]
UV-vis absorbance of copurified NADH at 340 nm [1]: PMFT is mediating the oxidation of NADH to NAD^+ on MsCDH

Cc1cc2nc3c(=O)[nH]c(=O)nc-3n(C[C@H](O)[C@H](O)[C@H](O)COP(=O)(O)O)c2cc1C [FMN]
HPLC of flavin released by heat from purified protein; UV-vis (MuMftD (MftD)): the absorbance features of the cofactor bound to MuMftD originated from FMN
